{"source": "patent EP0882732B1", "about": "“Taxoid derivative and method of producing thereof” (Ensuiko Sugar Refining Company, Limited, priority 1997, dated 1998)", "key": {"[1]": {"assay": "Stability in aqueous solution", "format": "physicochemical", "settings": "decomposed to paclitaxel", "excerpt": "As clearly shown in the Table compared with paclitaxel, the solubility of paclitaxel derivatives show strikingly high values."}, "[2]": {"assay": "Solubility in water (stirred in water, filtrate analysed by HPLC)", "method": "After stirring, the supernatant was filtered by a membrane filter (0.45µm) and a filtate was analyzed by HPLC."}, "[3]": {"system": "tubulin (a main constituting protein of the microtubule)", "assay": "Tubulin polymerization-promoting / depolymerization-inhibiting activity (absorbance at 350 nm)", "format": "biochemical", "settings": "for Depolymerization-inhibiting activity / Polymerization-promoting activity: relative activity, paclitaxel taken as 100, 5µM; for Depolymerization-inhibiting activity: absorbance at 350 nm 5 minutes after addition of calcium chloride; for Polymerization-promoting activity: tubulin, 37°C, 15 minutes, absorbance at 350 nm", "method": "Next, each of the above-described samples is mixed with tubulin (a main constituting protein of the microtubule) and allowed to react at 37°C for 15 minutes. Absorbance at 350 nm of the reaction solution was measured at 2, 5, 10 and 15 minutes after initiation of the reaction. Also, after the reaction ended, calcium chloride was added and. 5 minutes after its addition, absorbance at 350 nm was again measured. From each measured value the relative activity of each sample was determined such that polymerization-promoting activity and depolymerization - inhibiting activity were taken as 100, and the results are shown in Table 2."}, "[4]": {"settings": "I.Ringer et al., J. Natl. Cancer Inst., 83, 288 (1991); cited from earlier work"}, "[5]": {"settings": "in water, 10 mg in 5 ml water, stirred for 18 hours, filtered 0.45µm, HPLC"}}, "data": [{"smiles": "CC(=O)O[C@H]1C(=O)[C@]2(C)[C@@H](OC(=O)COC3O[C@H](CO)[C@@H](O)[C@H](O)[C@H]3O)C[C@H]3OC[C@@]3(OC(C)=O)[C@H]2[C@H](OC(=O)c2ccccc2)[C@]2(O)C[C@H](OC(=O)[C@H](OC(=O)COC3O[C@H](CO)[C@@H](O)[C@H](O)[C@H]3O)[C@@H](NC(=O)c3ccccc3)c3ccccc3)C(C)=C1C2(C)C", "note": "(some centres unmarked) [2',7-S-paclitaxel, Diglucosyloxyacetyl-2',7-paclitaxe]", "values": [{"measurement": "stability in aqueous solutions", "setting": "[1]", "value": "unstable in aqueous solutions"}, {"measurement": "solubility in water relative to paclitaxel", "setting": "[2]", "value": 121, "unit": "times"}, {"measurement": "Solubility", "setting": "[2]; [5]", "value": 48.4, "unit": "µg/mL"}, {"measurement": "Depolymerization-inhibiting activity", "setting": "[3]", "value": 77.7}, {"measurement": "Polymerization-promoting activity", "setting": "[3]", "value": 40.5}]}, {"smiles": "CC(=O)O[C@H]1C(=O)[C@@]2(C)[C@H]([C@H](OC(=O)c3ccccc3)[C@]3(O)C[C@H](OC(=O)[C@H](OC(=O)COC4O[C@H](CO)[C@@H](O)[C@H](O)[C@H]4O)[C@@H](NC(=O)c4ccccc4)c4ccccc4)C(C)=C1C3(C)C)[C@]1(OC(C)=O)CO[C@@H]1C[C@@H]2O", "note": "(some centres unmarked) [2'-S-paclitaxel, Glucosyloxyacetyl-2'-paclitaxel]", "values": [{"measurement": "stability in aqueous solutions", "setting": "[1]", "value": "unstable in aqueous solutions"}, {"measurement": "solubility in water relative to paclitaxel", "setting": "[2]", "value": 76.5, "unit": "times"}, {"measurement": "Solubility", "setting": "[2]; [5]", "value": 30.6, "unit": "µg/mL"}, {"measurement": "Depolymerization-inhibiting activity", "setting": "[3]", "value": 100}, {"measurement": "Polymerization-promoting activity", "setting": "[3]", "value": 52.7}]}, {"smiles": "CC(=O)O[C@H]1C(=O)[C@]2(C)[C@@H](OC(=O)COC3O[C@H](CO)[C@@H](O)[C@H](O)[C@H]3O)C[C@H]3OC[C@@]3(OC(C)=O)[C@H]2[C@H](OC(=O)c2ccccc2)[C@]2(O)C[C@H](OC(=O)[C@H](O)[C@@H](NC(=O)c3ccccc3)c3ccccc3)C(C)=C1C2(C)C", "note": "(some centres unmarked) [7-S-paclitaxel, Glucosyloxyacetyl-7-paclitaxel]", "values": [{"measurement": "solubility in water relative to paclitaxel", "setting": "[2]", "value": 36.8, "unit": "times"}, {"measurement": "Solubility", "setting": "[2]; [5]", "value": 14.7, "unit": "µg/mL"}, {"measurement": "Depolymerization-inhibiting activity", "setting": "[3]", "value": 225}, {"measurement": "Polymerization-promoting activity", "setting": "[3]", "value": 91.9}, {"measurement": "depolymerization-inhibiting activity compared with paclitaxel", "setting": "[3]; statement in words, comparison with paclitaxel", "value": "more than twice as potent as that of paclitaxel"}]}, {"smiles": "CC(=O)O[C@H]1C(=O)[C@@]2(C)[C@H]([C@H](OC(=O)c3ccccc3)[C@]3(O)C[C@H](OC(=O)[C@H](O)[C@@H](NC(=O)c4ccccc4)c4ccccc4)C(C)=C1C3(C)C)[C@]1(OC(C)=O)CO[C@@H]1C[C@@H]2O", "note": "[Paclitaxel, reference compound]", "values": [{"measurement": "Solubility", "setting": "[2]; 18 h", "value": 0.4, "unit": "µg/mL"}, {"measurement": "solubility at 18 h", "setting": "[2]; water, thermodynamic from solid", "value": 0.4, "unit": "µg/mL"}, {"measurement": "Depolymerization-inhibiting activity", "setting": "[3]", "value": 100}, {"measurement": "Polymerization-promoting activity", "setting": "[3]", "value": 100}]}, {"smiles": "CC(=O)O[C@@]12CO[C@@H]1C[C@H](O)[C@@]1(C)C(=O)[C@H](O)C3=C(C)[C@@H](OC(=O)[C@H](O)[C@@H](NC(=O)OC(C)(C)C)c4ccccc4)C[C@@](O)([C@@H](OC(=O)c4ccccc4)[C@H]21)C3(C)C", "note": "[docetaxel]", "values": [{"measurement": "solubility of docetaxel in water relative to paclitaxel", "setting": "[4]", "value": 1.3, "unit": "times"}]}]}
